± gives the expanded uncertainty stated by the source.
Conditions: 298.15 K; 101.33 kPa; Crystal; mass and volume measurments

- mass density: 1130 ± 20 kg/m3
Compound: Oc1cccnc1O [2,3-dihydroxypyridine]

— the NIST ThermoML archive (doi:10.1016/j.jct.2005.06.013)
